How the values were obtained:
RS = RS test
Procedure: (§1) This example provides results of four tests that were conducted on certain illustrative non-natural amino acids as an aid for predicting their properties for incorporation into non-natural amino acid polypeptides.

[1] = Oxime stability pH 4-8 (testing non-natural amino acids); assay type: physicochemical
Procedure: as §1

SMILES | RS test (RS) | Oxime Stability pH 4-8 [1]
CC(=O)c1ccc(C[C@H](N)C(=O)O)cc1 | √ | 
CC(=O)N/N=C/c1ccc(C[C@H](N)C(=O)O)cc1 | √ | 
CC(=O)CC(=O)c1ccc(C[C@H](N)C(=O)O)cc1 | Meta- bolized | 
N[C@@H](Cc1ccc2c(c1)NC(=O)C2=O)C(=O)O |  | — —

— patent publication US8846876B2, “Compositions containing, methods involving, and uses of non-natural amino acids and polypeptides” (Abrx, Inc., priority 2004, dated 2014)
